Measurements published in US11014929B2, “Pyrazolopyrimidine compounds and uses thereof” (Incyte Corporation, priority 2016, dated 2021).

Each compound was assayed against HPK1 (Homo sapiens (Human), UniProt Q92918) (assay: HPK1 Kinase Binding Assay). Details: LanthaScreen tracer 222 binding, active HPK1, one hour incubation at 25° C.
HPK1, sequence (Q92918 1-346): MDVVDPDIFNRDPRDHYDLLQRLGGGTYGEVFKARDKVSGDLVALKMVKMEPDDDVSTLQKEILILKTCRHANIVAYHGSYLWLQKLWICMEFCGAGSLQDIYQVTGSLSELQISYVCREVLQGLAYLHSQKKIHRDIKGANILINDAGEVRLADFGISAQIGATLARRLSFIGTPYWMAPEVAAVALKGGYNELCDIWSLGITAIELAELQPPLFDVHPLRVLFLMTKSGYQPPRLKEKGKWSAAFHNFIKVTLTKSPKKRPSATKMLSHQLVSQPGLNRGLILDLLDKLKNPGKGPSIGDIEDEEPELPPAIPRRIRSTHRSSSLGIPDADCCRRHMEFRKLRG
Description: A stock solution of 1 mM test compound was prepared in DMSO. The compound plate was prepared by 3-fold and 11-point serial dilutions. 0.1 μL of the compound in DMSO was transferred from the compound plate to the white 384 well polystyrene plates. The assay buffer contained 50 mM HEPES, pH 7.5, 0.01% Tween-20, 5 mM MgCl2, 0.01% BSA, and 5 mM DTT. 5 μl of 4 nM active HPK1 (SignalChem M23-11G) prepared in the buffer was added to the plate. The enzyme concentration given was based on the given stock concentration reported by the vender. 5 μl of 18 nM tracer 222 (ThermoFisher PV6121) and 4 nM LanthaScreen Eu-Anti GST antibody (ThermoFisher PV5595) were added. After one hour incubation at 25° C., the plates were read on a PHERAstar FS plate reader (BMG Labtech). Ki values were determined.
With `CNCc1cc(F)c(-c2ncc3[nH]nc(-c4ccc(N5CCN(S(C)(=O)=O)CC5)nc4)c3n2)c(F)c1` [Example 74, 1-(3,5-Difluoro-4-(3-(6-(4-(methylsulfonyl)piperazin-1-yl)pyridin-3-yl)-1H-pyrazolo[4,3-d]pyrimidin-5-yl)phenyl)-N-methylmethanamine] the Ki was ≤ 100 nM. In the case of `CCN(C)C(=O)N1CCN(c2ccc(-c3n[nH]c4cnc(-c5c(F)cc(CNC)cc5F)nc34)cn2)CC1` [Example 75, 4-(5-(5-(2,6-Difluoro-4-((methylamino)methyl)phenyl)-1H-pyrazolo[4,3-d]pyrimidin-3-yl)pyridin-2-yl)-N-ethyl-N-methylpiperazine-1-carboxamide], the Ki is reported as ≤ 100 nM. In the case of `CNCc1cc(F)c(-c2ncc3[nH]nc(-c4ccc(N5CCN(C(C)=O)CC5)nc4)c3n2)c(C(F)(F)F)c1` [Example 77, 1-(4-(5-(5-(2-Fluoro-4-((methylamino)methyl)-6-(trifluoromethyl)phenyl)-1H-pyrazolo[4,3-d]pyrimidin-3-yl)pyridin-2-yl)piperazin-1-yl)ethanone], the Ki is reported as ≤ 100 nM. For `CNCc1cc(C)c(-c2ncc3[nH]nc(-c4cnn(C)c4)c3n2)c(F)c1` [Example 78, 1-(3-Fluoro-5-methyl-4-(3-(1-methyl-1H-pyrazol-4-yl)-1H-pyrazolo[4,3-d]pyrimidin-5-yl)phenyl)-N-methylmethanamine], the Ki was ≤ 100 nM. `CNCc1cc(C)c(-c2ncc3[nH]nc(-c4cnn(-c5ccccc5C#N)c4)c3n2)c(F)c1` [Example 79, 2-(4-(5-(2-Fluoro-6-methyl-4-((methylamino)methyl)phenyl)-1H-pyrazolo[4,3-d]pyrimidin-3-yl)-1H-pyrazol-1-yl)benzonitrile] was tested, and the Ki was ≤ 100 nM. With `Cc1cc(C2CCCN2)cc(F)c1-c1ncc2[nH]nc(-c3ccc(N4CCN(C)CC4)cc3)c2n1` (stereo not shown) [Example 80, 5-(2-Fluoro-6-methyl-4-(pyrrolidin-2-yl)phenyl)-3-(4-(4-methylpiperazin-1-yl)phenyl)-1H-pyrazolo[4,3-d]pyrimidine] the Ki was ≤ 100 nM. In the case of `Cc1cc(C2CCCCN2)cc(F)c1-c1ncc2[nH]nc(-c3ccc(N4CCN(C)CC4)cc3)c2n1` (stereo not shown) [Example 81, 5-(2-Fluoro-6-methyl-4-(piperidin-2-yl)phenyl)-3-(4-(4-methylpiperazin-1-yl)phenyl)-1H-pyrazolo[4,3-d]pyrimidine], the Ki is reported as ≤ 100 nM. For `Cn1cc(-c2n[nH]c3cnc(-c4c(F)cc(NC(=O)CN5CCCC5)cc4F)nc23)cn1` [Example 82, N-(3,5-Difluoro-4-(3-(1-methyl-1H-pyrazol-4-yl)-1H-pyrazolo[4,3-d]pyrimidin-5-yl)phenyl)-2-(pyrrolidin-1-yl)acetamide], the Ki was ≤ 100 nM. `CN(C)CC(=O)Nc1cc(F)c(-c2ncc3[nH]nc(-c4cnn(C)c4)c3n2)c(F)c1` [Example 83, N-(3,5-Difluoro-4-(3-(1-methyl-1H-pyrazol-4-yl)-1H-pyrazolo[4,3-d]pyrimidin-5-yl)phenyl)-2-(dimethylamino)acetamide] was tested, and the Ki was ≤ 100 nM. With `CNCc1cc(F)c(-c2ncc3[nH]nc(-c4cnn(C)c4)c3n2)c(F)c1` [Example 84, 1-(3,5-Difluoro-4-(3-(1-methyl-1H-pyrazol-4-yl)-1H-pyrazolo[4,3-d]pyrimidin-5-yl)phenyl)-N-methylmethanamine] the Ki was ≤ 100 nM. `CNC(C)c1cc(F)c(-c2ncc3[nH]nc(-c4cnn(C)c4)c3n2)c(F)c1` (stereo not shown) [Example 85, 1-(3,5-Difluoro-4-(3-(1-methyl-1H-pyrazol-4-yl)-1H-pyrazolo[4,3-d]pyrimidin-5-yl)phenyl)-N-methylethanamine] was tested, and the Ki was ≤ 100 nM. `CNCc1cc(F)c(-c2ncc3[nH]nc(-c4cnn(C)c4)c3n2)c(OC)c1` [Example 86, 1-(3-Fluoro-5-methoxy-4-(3-(1-methyl-1H-pyrazol-4-yl)-1H-pyrazolo[4,3-d]pyrimidin-5-yl)phenyl)-N-methylmethanamine] was tested, and the Ki was ≤ 100 nM. In the case of `CCNCc1cc(F)c(-c2ncc3[nH]nc(-c4cnn(C)c4)c3n2)c(OC)c1` [Example 87, N-(3-Fluoro-5-methoxy-4-(3-(1-methyl-1H-pyrazol-4-yl)-1H-pyrazolo[4,3-d]pyrimidin-5-yl)benzyl)ethanamine], the Ki is reported as ≤ 100 nM. In the case of `COc1cccc(F)c1-c1ncc2[nH]nc(-c3cc(C)n[nH]3)c2n1` [Example 88, 5-(2-Fluoro-6-methoxyphenyl)-3-(3-methyl-1H-pyrazol-5-yl)-1H-pyrazolo[4,3-d]pyrimidine], the Ki is reported as ≤ 100 nM. In the case of `COc1cccc(F)c1-c1ncc2[nH]nc(OCc3ccccc3)c2n1` [Example 89, 3-(Benzyloxy)-5-(2-fluoro-6-methoxyphenyl)-1H-pyrazolo[4,3-d]pyrimidine], the Ki is reported as ≤ 100 nM. In the case of `CN1CCN(c2cc(-c3n[nH]c4cnc(-c5c(F)cc6c(c5F)CNCC6)nc34)ccn2)CC1` [Example 90, 6,8-Difluoro-7-(3-(2-(4-methylpiperazin-1-yl)pyridin-4-yl)-1H-pyrazolo[4,3-d]pyrimidin-5-yl)-1,2,3,4-tetrahydroisoquinoline], the Ki is reported as ≤ 100 nM. In the case of `OCCNc1ncc(-c2n[nH]c3cnc(-c4c(F)cc5c(c4F)CNCC5)nc23)cn1` [Example 91, 2-(5-(5-(6,8-Difluoro-1,2,3,4-tetrahydroisoquinolin-7-yl)-1H-pyrazolo[4,3-d]pyrimidin-3-yl)pyrimidin-2-ylamino)ethanol], the Ki is reported as ≤ 100 nM. With `CN1CCN(c2ncc(-c3n[nH]c4cnc(-c5c(F)cc6c(c5F)CNCC6)nc34)cn2)CC1` [Example 92, 6,8-Difluoro-7-(3-(2-(4-methylpiperazin-1-yl)pyrimidin-5-yl)-1H-pyrazolo[4,3-d]pyrimidin-5-yl)-1,2,3,4-tetrahydroisoquinoline] the Ki was ≤ 100 nM. With `CN(C)c1ncc(-c2n[nH]c3cnc(-c4c(F)cc5c(c4F)CNCC5)nc23)cn1` [Example 93, 5-(5-(6,8-Difluoro-1,2,3,4-tetrahydroisoquinolin-7-yl)-1H-pyrazolo[4,3-d]pyrimidin-3-yl)-N,N-dimethylpyrimidin-2-amine] the Ki was ≤ 100 nM. In the case of `CNc1ncc(-c2n[nH]c3cnc(-c4c(F)cc5c(c4F)CNCC5)nc23)cn1` [Example 94, 5-(5-(6,8-Difluoro-1,2,3,4-tetrahydroisoquinolin-7-yl)-1H-pyrazolo[4,3-d]pyrimidin-3-yl)-N-methylpyrimidin-2-amine], the Ki is reported as ≤ 100 nM. `CS(=O)(=O)NCc1ccc(-c2n[nH]c3cnc(-c4c(F)cc5c(c4F)CNCC5)nc23)cc1` [Example 95, N-(4-(5-(6,8-Difluoro-1,2,3,4-tetrahydroisoquinolin-7-yl)-1H-pyrazolo[4,3-d]pyrimidin-3-yl)benzyl)methanesulfonamide] was tested, and the Ki was ≤ 100 nM. With `O=S(=O)(c1ccc(-c2n[nH]c3cnc(-c4c(F)cc5c(c4F)CNCC5)nc23)cc1)N1CCC1` [Example 96, 7-(3-(4-(Azetidin-1-ylsulfonyl)phenyl)-1H-pyrazolo[4,3-d]pyrimidin-5-yl)-6,8-difluoro-1,2,3,4-tetrahydroisoquinoline] the Ki was ≤ 100 nM. With `Fc1cc2c(c(F)c1-c1ncc3[nH]nc(-c4ccc(OC(F)F)nc4)c3n1)CNCC2` [Example 97, 7-(3-(6-(Difluoromethoxy)pyridin-3-yl)-1H-pyrazolo[4,3-d]pyrimidin-5-yl)-6,8-difluoro-1,2,3,4-tetrahydroisoquinoline] the Ki was ≤ 100 nM. `Fc1cc2c(c(F)c1-c1ncc3[nH]nc(-c4ccc(N5CCOCC5)nc4)c3n1)CNCC2` [Example 98, 4-(5-(5-(6,8-Difluoro-1,2,3,4-tetrahydroisoquinolin-7-yl)-1H-pyrazolo[4,3-d]pyrimidin-3-yl)pyridin-2-yl)morpholine] was tested, and the Ki was ≤ 100 nM. In the case of `CN1CCN(c2ccc(-c3n[nH]c4cnc(-c5c(F)cc6c(c5F)CNCC6)nc34)cc2)CC1` [Example 99, 6,8-Difluoro-7-(3-(4-(4-methylpiperazin-1-yl)phenyl)-1H-pyrazolo[4,3-d]pyrimidin-5-yl)-1,2,3,4-tetrahydroisoquinoline], the Ki is reported as ≤ 100 nM. For `COc1ccc(-c2ncc3[nH]nc(-c4ccc(N5CCN(C)CC5)cc4)c3n2)c2c1CNCC2` [Example 100, 8-Methoxy-5-(3-(4-(4-methylpiperazin-1-yl)phenyl)-1H-pyrazolo[4,3-d]pyrimidin-5-yl)-1,2,3,4-tetrahydroisoquinoline], the Ki was ≤ 100 nM. For `CN1CCN(c2ccc(-c3n[nH]c4cnc(-c5ccc6cccnc6c5F)nc34)cc2)CC1` [Example 101, 8-Fluoro-7-(3-(4-(4-methylpiperazin-1-yl)phenyl)-1H-pyrazolo[4,3-d]pyrimidin-5-yl)quinoline], the Ki was ≤ 100 nM. With `COc1ccncc1-c1ncc2[nH]nc(-c3ccc(N4CCN(C)CC4)cc3)c2n1` [Example 102, 5-(4-Methoxypyridin-3-yl)-3-(4-(4-methylpiperazin-1-yl)phenyl)-1H-pyrazolo[4,3-d]pyrimidine] the Ki was ≤ 100 nM. `COc1ccncc1-c1ncc2[nH]nc(-c3ccc(N4CCN(C)CC4)nc3)c2n1` [Example 103, 5-(4-Methoxypyridin-3-yl)-3-(6-(4-methylpiperazin-1-yl)pyridin-3-yl)-1H-pyrazolo[4,3-d]pyrimidine] was tested, and the Ki was ≤ 100 nM. `CNCc1cc(C)c(-c2ncc3[nH]nc(-c4ccc(N5CCN(C)CC5)cc4)c3n2)cn1` [Example 104, N-Methyl-1-(4-methyl-5-(3-(4-(4-methylpiperazin-1-yl)phenyl)-1H-pyrazolo[4,3-d]pyrimidin-5-yl)pyridin-2-yl)methanamine] was tested, and the Ki was ≤ 100 nM. With `CN1CCN(Cc2ccc(-c3n[nH]c4cnc(-c5c(F)ccc6c5CCNC6)nc34)cc2)CC1` [Example 106, 6-Fluoro-5-(3-(4-((4-methylpiperazin-1-yl)methyl)phenyl)-1H-pyrazolo[4,3-d]pyrimidin-5-yl)-1,2,3,4-tetrahydroisoquinoline] the Ki was ≤ 100 nM.
